Test system: Caco-2
Test: Permeability of the compound from apical to basolateral side in human Caco2 cells
Assay type: ADME, cell-based

permeability | SMILES
impermeable | CS(=O)(=O)c1cccc(Cn2ccc(N3CCc4[nH]nc(-c5ccncc5)c4C3)cc2=O)c1
permeable | O=c1cc(N2CCc3[nH]nc(-c4ccncc4)c3C2)cc[nH]1

From ChEMBL document CHEMBL3603749, “Ligand efficient tetrahydro-pyrazolopyridines as inhibitors of ERK2 kinase” (Bioorg Med Chem Lett, 2015)
